Article doi:10.1101/2025.04.25.650653, “Hierarchical small molecule inhibition of MYST acetyltransferases” (bioRxiv, 2025)

Columns and labels:
[1] = tested on: BT-549 cells; assay: ATP-based viability assay (CellTiter-Glo); assay type: cell-based; conditions: Homo sapiens; BT-549, ATP-Glo assay, 72 h, n=4
Excerpt: (§1) Figure 6. […] (C) Dependence of breast cancer cell lines on non-MYST KATs (EP300, CREBBP), MYST KATs (KAT6A, KAT6B, KAT7, KAT8, KAT5), and a MYST KAT complex member (BRPF1) derived from on DepMap CRISPR screening data. BT-549 is highlighted in orange. Lower CERES score indicates a greater dependence of the cell line on the specified gene. […] Data is representiative of n=2 biological replicates.
Analysis of DepMap-derived CRISPR screening data supports the notion that while breast cancer models vary widely in their requirement for EP300 and CREBBP, BT-549 appears to a fairly independent line. […]
(0.01, 0.1, 1, 10, 100 μM) for 48 hours and analyzed by sulforhodamine B assay for growth inhibition as previously described.12-14 o validate the NCI-60 relative activity trends using an orthogonal method, we […]
0.94, 0.47, 0.23, 0 μM) for 96 hours. Experiments were performed in quadruplicate, and cell viability was measured using CellTiter-Glo® Luminescent Cell Viability Assay (Promega, G7572) according to the manufacturer's instructions. Luminescence signals were recorded on a BioTek Synergy 2 plate reader, and results were normalized to vehicle-treated controls (set to 100%). Half-maximal inhibition values (IC₅₀) were determined from nonlinear regression analysis of dose-response curves using GraphPad Prism 9. […]

[2] = tested on: H2A.ZK4/K7Ac (KAT5); assay: MYST KAT biomarker western blot, BT-549; assay type: cell-based; conditions: BT-549 cells, 24 h, 0.1-30 μM
Excerpt: as §1
(§2) Analysis of DepMap-derived CRISPR screening data supports the notion that while breast cancer models vary widely in their requirement for EP300 and CREBBP, BT-549 appears to a fairly independent line. By comparison, targeting of KAT6 and KAT7 exerts modest effects on growth while KAT8 is highly inhibitory, consistent with its designation as an essential gene (Fig. 6C).[47], [48] […] KAT3 (H3K18Ac) and KAT5 (H2A.ZK4/K7Ac) were unaffected. […]
(§3) distinguish between tightly grouped and diffuse clusters, compactness was quantified by calculating the average pairwise Euclidean distance between all points within each cluster. Clusters with lower average […]
(§4) were visualized as two-dimensional scatter plots with points colored according to cluster assignments, […]
(§5) Binding structures between FOXK2 (Uniprot: Q01167) and candidate interactors identified from our chemoproteomic data were predicted using AlphaPulldown4 v0.30.7,4 with multiple sequence alignments generated via ColabFold Search v1.5.5 on the NIH HPC Biowulf Cluster. Five models were generated per protein-protein pair without using templates or paired MSAs. Local Interaction Scores (LIS) and Local Interaction Area (LIA) were calculated according to previously described formulas.5 Structural visualizations were generated using ChimeraX v1.8.
(§6) Composite scoring of candidate FOXK2-protein interactions
(§7) To prioritize potential interactions, we developed a composite scoring system integrating multiple AlphaFold metrics (mpDockQ/pDockQ, LIS, and LIA), building upon established approaches for protein-protein interaction analysis.6 Each interaction was evaluated against minimum acceptable thresholds (1610 for LIA, 0.073 for LIS, and 0.175 for mpDockQ/pDockQ) and assigned a weighted constant (k): 1.0 for passing all three thresholds, 0.75 for two, 0.5 for one, and zero for none. Metrics were then min-max normalized, summed, and multiplied by the weighted constant to generate final composite scores for ranking candidate interactions. All data, code, and analysis scripts can be accessed as described in Data […]
(§8) Prediction of interface contacts […]
(§9) P61964), were further analyzed to identify interface residue-residue contacts using both AlphaFold2 and AlphaFold3. For AlphaFold2 analysis7 we calculated Euclidean distances between alpha carbon coordinates of residues using Sci-Py's Distance Matrix Module, filtering for interactions under 8Å. […]

[3] = tested on: H3K18Ac (KAT3); assay: MYST KAT biomarker western blot, BT-549; assay type: cell-based; conditions: BT-549 cells, 24 h, 0.1-30 μM
Excerpt: as §1, §2, §3, §4, §5, §6, §7, §8, §9

[4] = tested on: H3K14Ac (KAT7); assay: MYST KAT biomarker western blot, BT-549; assay type: cell-based; conditions: BT-549 cells, 24 h, near the GI50 dose
Excerpt: as §1, §2, §3, §4, §5, §6, §7, §8, §9

[5] = tested on: H3K23Ac (KAT6A/B); assay: MYST KAT biomarker western blot, BT-549; assay type: cell-based; conditions: BT-549 cells, 24 h, near the GI50 dose
Excerpt: as §1, §2, §3, §4, §5, §6, §7, §8, §9

[6] = tested on: MYST KAT complexes (KAT7, KAT8, KAT5) in HeLa nuclear extracts; assay: Competitive chemoproteomic profiling (H3K14-CoA affinity capture) of native MYST complexes; assay type: binding
Method: Proteins belonging to multiple KAT complexes are characterized by distinct competition profiles.
The beads were washed three times
during the bead coating step.
hours with end-over-end mixing.
After magnetic separation for 3 minutes,
conditions, and both eluates were combined.
Membranes were probed with antibodies

GI50 [1]: ~7 µM
Structure (SMILES): COc1cccc(OC)c1S(=O)(=O)Nc1noc2cc(Cn3cccn3)cc(OC)c12 [PF-9363]
effect on KAT5 (H2A.ZK4/K7Ac) [2]: unaffected | effect on KAT3 (H3K18Ac) [3]: unaffected | inhibition of KAT7 (H3K14Ac) [4]: near complete inhibiton | inhibition of KAT6A/B (H3K23Ac) [5]: near complete inhibiton | competition of capture of KAT8-containing MSL and NSL complexes and KAT5-containing NuA4 complex ([6]; 1 and 10 μM, HeLa nuclear extracts): competed capture of all CORUM-annotated members | sensitivity of KAT complexes, general order ([6]; HeLa nuclear extracts, chemoproteomic competition): KAT7 > KAT8 > KAT5 | hierarchical inhibition order of native KAT complexes ([6]; chemoproteomic profiling and histone acetylation biomarkers): KAT6A/B > KAT7 >> KAT8 > KAT5
